Data as given in ChEMBL document CHEMBL3137667, “[Drug-induced liver injury; fourteenth updated edition of the bibliographic database of liver injuries and related drugs]” (Gastroenterol Clin Biol, 2004).

Assays:
[1] = Highest frequency of moderate liver toxicity observed during clinical trials, expressed as a percentage. [column '% BIOL' in source]; settings: human
[2] = Highest frequency of acute liver toxicity observed during clinical trials, expressed as a percentage. [column '% AIGUE' in source]; settings: human
[3] = human, serum
[4] = human, serum; remark: listed apart in the source
[5] = human
[6] = human; remark: listed apart in the source
[7] = human; remark: listed apart in the source
[8] = human, serum, 4383 h
[9] = human; remark: listed apart in the source
[10] = human; remark: listed apart in the source
[11] = human; remark: listed apart in the source
[12] = human; remark: listed apart in the source
[13] = human; remark: listed apart in the source
[14] = human; remark: listed apart in the source
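For Hepatotoxicity (association with vascular disease) in this document: count of indexed literature references reporting vascular liver injury in humans, e.g. peliosis hepatitis, hepatic veno-occlusive disease or Budd-Chiari syndrome.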
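For Hepatotoxicity (benign tumour) in this document: value is a count of indexed literature references citing a benign tumour confirmed by histopathology.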
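For Hepatotoxicity (choleostasis) in this document: human cholestatic liver injury, shown by histopathology or by peak ALT or AST elevation over alkaline phosphatase ratio below 2, value counts indexed literature reports.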
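For Hepatotoxicity (chronic liver disease) in this document: chronic liver injury confirmed by histopathology or persistently raised serum aminotransferase activity beyond 6 months, value given as the count of indexed literature references.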
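For Hepatotoxicity (cirrhosis) in this document: value is a count of indexed literature references reporting cirrhosis confirmed by histopathology.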
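For Hepatotoxicity (cytolytic) in this document: human cytolytic liver injury, shown by histopathology or by a ratio above 5 of peak ALT or AST elevation to alkaline phosphatase elevation, value counts indexed references.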
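For Hepatotoxicity (granulomatous hepatitis) in this document: value is a count of indexed literature references reporting granulomatous liver disease confirmed by histopathology.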
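For Hepatotoxicity (malignant tumour) in this document: malignant tumour confirmed by histopathology, value gives the count of indexed literature references reporting it.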
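For Hepatotoxicity (severe hepatitis) in this document: human clinical data: severe hepatitis, meaning potentially life-threatening liver failure or clinically observed cases, the value counts how many indexed literature references report it.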
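For Hepatotoxicity (steatosis) in this document: steatosis confirmed by histopathology, value is the count of indexed references.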

| SMILES | Hepatotoxicity (moderate) [1] [%] | Hepatotoxicity (acute) [2] [%] | Hepatotoxicity (moderate) [3] | Hepatotoxicity (acute) [4] | Hepatotoxicity (cytolytic) [5] | Hepatotoxicity (choleostasis) [6] | Hepatotoxicity (severe hepatitis) [7] | Hepatotoxicity (chronic liver disease) [8] | Hepatotoxicity (cirrhosis) [9] | Hepatotoxicity (granulomatous hepatitis) [10] | Hepatotoxicity (association with vascular disease) [11] | Hepatotoxicity (steatosis) [12] | Hepatotoxicity (malignant tumour) [13] | Hepatotoxicity (benign tumour) [14] | Hepatotoxicity (moderate) ([1]; Liver) [%] | Hepatotoxicity (acute) ([2]; Liver) [%] | Hepatotoxicity (cytolytic) ([5]; Liver) | Hepatotoxicity (choleostasis) ([6]; Liver) | Hepatotoxicity (severe hepatitis) ([7]; Liver) | Hepatotoxicity (granulomatous hepatitis) ([10]; Liver) |
| --- | --- | --- | --- | --- | --- | --- | --- | --- | --- | --- | --- | --- | --- | --- | --- | --- | --- | --- | --- | --- |
| C=C(OC)C(=O)Nc1cc(OC)c(OC)cc1C(=O)O[C@H]1C[C@H](O[C@@H]2C(=O)C(NC(=O)OC)=C3/C(=C\CSSSC)[C@]2(O)C#C/C=C\C#C[C@@H]3O[C@@H]2O[C@H](C)[C@@H](NO[C@H]3C[C@H](O)[C@H](SC)[C@@H](C)O3)[C@H](O)[C@H]2O[C@H]2C[C@H](OC)[C@@H](NC(C)C)CO2)O[C@@H](C)[C@H]1O [ESPERAMICIN A1] | 10.7 | 0 | 1 | 0 | 0 | 0 | 0 | 0 | 0 | 0 | 0 | 0 | 0 | 0 | – | – | – | – | – | – |
| C#CC(O)(/C=C/Cl)CC (stereo not given) [ETHCHLORVYNOL] | 0 | 0 | 0 | 2 | 0 | 2 | 0 | 0 | 0 | 0 | 0 | 0 | 0 | 0 | – | – | – | – | – | – |
| CCN1C(=O)NC(c2ccccc2)C1=O (stereo not given) [ETHOTOIN] | 2 | 0 | 1 | 0 | 0 | 0 | 0 | 0 | 0 | 0 | 0 | 0 | 0 | 0 | – | – | – | – | – | – |
| CC(O)(P(=O)(O)O)P(=O)(O)O [ETIDRONIC ACID] | 8.7 | 0 | 1 | 0 | 0 | 0 | 0 | 0 | 0 | 0 | 0 | 0 | 0 | 0 | – | – | – | – | – | – |
| CC(C)(Oc1ccc(Cl)cc1)C(=O)OCCOC(=O)c1cccnc1 [ETOFIBRATE] | 0 | 0 | 1 | 0 | 0 | 0 | 0 | 0 | 0 | 0 | 0 | 0 | 0 | 0 | – | – | – | – | – | – |
| COc1ccc(CCN(C)CCCOc2ccc(S(=O)(=O)c3c(C(C)C)cn4ccccc34)cc2)cc1OC [FANTOFARONE] | 2.7 | 0 | 1 | 0 | 0 | 0 | 0 | 0 | 0 | 0 | 0 | 0 | 0 | 0 | – | – | – | – | – | – |
| C[C@@H](O)[C@H]1C(=O)N2C(C(=O)O)=C([C@H]3CCCO3)S[C@H]12 [FAROPENEM] | 20 | 0 | 39 | 0 | 0 | 0 | 0 | 0 | 0 | 0 | 0 | 0 | 0 | 0 | – | – | – | – | – | – |
| Nc1ncn([C@@H]2O[C@H](CO)[C@@H](O)[C@@H]2O)c(=O)n1 [FAZARABINE] | – | – | 1 | 0 | – | – | – | 0 | 0 | – | 0 | 0 | 0 | 0 | 46.4 | 0 | 0 | 0 | 0 | 0 |
| CCOC(=O)C1=C(C)NC(C)=C(C(=O)OC)C1c1cccc(Cl)c1Cl (stereo not given) [FELODIPINE] | – | – | 3 | 0 | 0 | 0 | – | 0 | 0 | 0 | 0 | 0 | 0 | 0 | 20 | 0 | – | – | 0 | – |
| O=C(O)Cc1ccccc1Oc1ccc(Cl)cc1Cl [FENCLOFENAC] | 1 | 0 | 1 | 0 | 0 | 0 | 0 | 0 | 0 | 0 | 0 | 0 | 0 | 0 | – | – | – | – | – | – |
| CC(C)(C)NC(=O)[C@H]1CC[C@H]2[C@@H]3CC[C@H]4NC(=O)C=C[C@]4(C)[C@H]3CC[C@]12C [FINASTERIDE] | 9 | 0 | 1 | 0 | 0 | 0 | 0 | 0 | 0 | 0 | 0 | 0 | 0 | 0 | – | – | – | – | – | – |
| CN1CCN(c2c(F)cc3c(=O)c(C(=O)O)cn(CCF)c3c2F)CC1 [FLEROXACIN] | 8.3 | 0 | 13 | 0 | 0 | 0 | 0 | 0 | 0 | 0 | 0 | 0 | 0 | 0 | – | – | – | – | – | – |
| CC(C)(CNC(N)=O)NCC(O)COC(=O)c1ccccc1F (stereo not given) [FLESTOLOL] | 6.7 | 0 | 2 | 0 | 0 | 0 | 0 | 0 | 0 | 0 | 0 | 0 | 0 | 0 | – | – | – | – | – | – |
| COC(=O)Nc1nc2cc(C(=O)c3ccc(F)cc3)ccc2[nH]1 [FLUBENDAZOLE] | 6 | 0 | 1 | 1 | 1 | 0 | 0 | 0 | 0 | 0 | 0 | 0 | 0 | 0 | – | – | – | – | – | – |
| O=C(O)c1ccccc1Nc1cccc(C(F)(F)F)c1 [FLUFENAMIC ACID] | 0 | 0 | 1 | 0 | 0 | 0 | 0 | 0 | 0 | 0 | 0 | 0 | 0 | 0 | – | – | – | – | – | – |
